Results published in PMC8330742, “New benzothieno[2,3-c]pyridines as non-steroidal CYP17 inhibitors: design, synthesis, anticancer screening, apoptosis induction, and in silico ADME profile studies” (Journal of Enzyme Inhibition and Medicinal Chemistry, 2021).

What was measured:
[1] = system: M14; assay: NCI-60 SRB screen; format: cell-based, human; conditions: Homo sapiens; M14; single dose 10^−5 M; read-out: Growth inhibition (%)
[2] = system: NCI-H23; assay: NCI-60 SRB screen; format: cell-based, human; conditions: Homo sapiens; NCI-H23; single dose 10^−5 M; read-out: Growth inhibition (%)
[3] = system: RXF 393; assay: NCI-60 SRB screen; format: cell-based, human; conditions: Homo sapiens; RXF 393; single dose 10^−5 M; read-out: Growth inhibition (%)
[4] = system: UACC-62; assay: NCI-60 SRB screen; format: cell-based, human; conditions: Homo sapiens; UACC-62; single dose 10^−5 M; read-out: Growth inhibition (%)
[5] = system: UO-31; assay: NCI-60 SRB screen; format: cell-based, human; conditions: Homo sapiens; UO-31; single dose 10^−5 M; read-out: Growth inhibition (%)
[6] = system: NCI-H322M; assay: NCI-60 SRB screen; format: cell-based, human; conditions: Homo sapiens, single dose 10^−5 M, read-out: Growth inhibition (%)
[7] = system: SK-MEL-2; assay: NCI-60 SRB screen; format: cell-based, human; conditions: Homo sapiens; SK-MEL-2; single dose 10^−5 M; read-out: Growth inhibition (%)
[8] = system: SF-268; assay: NCI-60 SRB screen; format: cell-based, human; conditions: Homo sapiens; SF-268; single dose 10^−5 M; read-out: Growth inhibition (%)
[9] = system: HCT-15; assay: NCI-60 SRB screen; format: cell-based, human; conditions: Homo sapiens; HCT-15; single dose 10^−5 M; read-out: Growth inhibition (%)
[10] = system: COLO 205; assay: NCI-60 SRB screen; format: cell-based, human; conditions: Homo sapiens; COLO 205; single dose 10^−5 M; read-out: Growth inhibition (%)
[11] = system: CCRF-CEM; assay: NCI-60 SRB screen; format: cell-based; conditions: Homo sapiens, single dose 10^−5 M, read-out: Growth inhibition (%)
[12] = system: EKVX; assay: NCI-60 SRB screen; format: cell-based, human; conditions: Homo sapiens, single dose 10^−5 M, read-out: Growth inhibition (%)
[13] = system: TK-10; assay: NCI-60 SRB screen; format: cell-based, human; conditions: Homo sapiens; TK-10; single dose 10^−5 M; read-out: Growth inhibition (%)
[14] = system: K-562; assay: NCI-60 SRB screen; format: cell-based, human; conditions: Homo sapiens, K562; K-562; single dose 10^−5 M; read-out: Growth inhibition (%)
[15] = system: MALME-3M; assay: NCI-60 SRB screen; format: cell-based, human; conditions: Homo sapiens, single dose 10^−5 M, read-out: Growth inhibition (%)
[16] = system: ACHN; assay: NCI-60 SRB screen; format: cell-based; conditions: Homo sapiens, single dose 10^−5 M, read-out: Growth inhibition (%)
[17] = system: MOLT-4; assay: NCI-60 SRB screen; format: cell-based; conditions: Homo sapiens; MOLT-4; single dose 10^−5 M; read-out: Growth inhibition (%)
[18] = system: A549/ATCC; assay: NCI-60 SRB screen; format: cell-based, human; conditions: Homo sapiens, single dose 10^−5 M, read-out: Growth inhibition (%)
[19] = system: NCI-H226; assay: NCI-60 SRB screen; format: cell-based, human; conditions: Homo sapiens; NCI-H226; single dose 10^−5 M; read-out: Growth inhibition (%)
[20] = system: MDA-MB-435; assay: NCI-60 SRB screen; format: cell-based; conditions: Homo sapiens, MDA-MB-435, read-out: Growth inhibition (%)
[21] = system: UACC-257; assay: NCI-60 SRB screen; format: cell-based, human; conditions: Homo sapiens, UACC-257; UACC-275 (so in the source); single dose 10^−5 M; read-out: Growth inhibition (%)
[22] = system: HOP-62; assay: NCI-60 SRB screen; format: cell-based, human; conditions: Homo sapiens; HOP-62; single dose 10^−5 M; read-out: Growth inhibition (%)
[23] = system: HT-29; assay: NCI-60 SRB screen; format: cell-based; conditions: Homo sapiens; HT-29; single dose 10^−5 M; read-out: Growth inhibition (%)
[24] = system: SK-OV-3; assay: NCI-60 SRB screen; format: cell-based, human; conditions: Homo sapiens; SK-OV-3; single dose 10^−5 M; read-out: Growth inhibition (%)
[25] = system: NCI-H460; assay: NCI-60 SRB screen; format: cell-based, human; conditions: Homo sapiens; NCI-H460; single dose 10^−5 M; read-out: Growth inhibition (%)
[26] = system: OVCAR-3; assay: NCI-60 SRB screen; format: cell-based, human; conditions: Homo sapiens; OVCAR-3; single dose 10^−5 M; read-out: Growth inhibition (%)
[27] = system: IGROV1; assay: NCI-60 SRB screen; format: cell-based, human; conditions: Homo sapiens, IGROV-1; IGROV1; single dose 10^−5 M; read-out: Growth inhibition (%)
[28] = system: HCC-2998; assay: NCI-60 SRB screen; format: cell-based, human; conditions: Homo sapiens; HCC-2998; single dose 10^−5 M; read-out: Growth inhibition (%)
[29] = system: SF-295; assay: NCI-60 SRB screen; format: cell-based, human; conditions: Homo sapiens; SF-295; single dose 10^−5 M; read-out: Growth inhibition (%)
[30] = system: 786-0; assay: NCI-60 SRB screen; format: cell-based; conditions: Homo sapiens; 786-0; single dose 10^−5 M; read-out: Growth inhibition (%)
[31] = system: NCI/ADR-RES; assay: NCI-60 SRB screen; format: cell-based, human; conditions: Homo sapiens, single dose 10^−5 M, read-out: Growth inhibition (%)
[32] = system: SR; assay: NCI-60 SRB screen; format: cell-based; conditions: Homo sapiens, single dose 10^−5 M, read-out: Growth inhibition (%)
[33] = system: LOX IMVI; assay: NCI-60 SRB screen; format: cell-based, human; conditions: Homo sapiens, single dose 10^−5 M, read-out: Growth inhibition (%)
[34] = system: SK-MEL-5; assay: NCI-60 SRB screen; format: cell-based, human; conditions: Homo sapiens; SK-MEL-5; single dose 10^−5 M; read-out: Growth inhibition (%)
[35] = system: SK-MEL-28; assay: NCI-60 SRB screen; format: cell-based; conditions: Homo sapiens; SK-MEL-28; single dose 10^−5 M; read-out: Growth inhibition (%)
[36] = system: panel of 60 cancer cell lines; assay: NCI-60 SRB screen, mean or range over the panel; format: cell-based, human; conditions: Homo sapiens; mean over the cell lines; single dose 10^−5 M; read-out: Mean growth inhibition (%)
[37] = system: SW-620; assay: NCI-60 SRB screen; format: cell-based; conditions: Homo sapiens; SW-620; single dose 10^−5 M; read-out: Growth inhibition (%)
[38] = system: NCI-H522; assay: NCI-60 SRB screen; format: cell-based, human; conditions: Homo sapiens; NCI-H522; single dose 10^−5 M; read-out: Growth inhibition (%)
[39] = system: OVCAR-4; assay: NCI-60 SRB screen; format: cell-based, human; conditions: Homo sapiens; OVCAR-4; single dose 10^−5 M; read-out: Growth inhibition (%)
[40] = system: KM12; assay: NCI-60 SRB screen; format: cell-based, human; conditions: Homo sapiens; KM12; single dose 10^−5 M; read-out: Growth inhibition (%)
[41] = system: HL-60(TB); assay: NCI-60 SRB screen; format: cell-based, human; conditions: Homo sapiens; HL-60 (TB); single dose 10^−5 M; read-out: Growth inhibition (%)
[42] = system: HCT-116; assay: NCI-60 SRB screen; format: cell-based, human; conditions: Homo sapiens; HCT-116; single dose 10^−5 M; read-out: Growth inhibition (%)
[43] = system: OVCAR-8; assay: NCI-60 SRB screen; format: cell-based, human; conditions: Homo sapiens; OVCAR-8; single dose 10^−5 M; read-out: Growth inhibition (%)
[44] = system: SN12C; assay: NCI-60 SRB screen; format: cell-based, human; conditions: Homo sapiens, SN12C; SN 12 C; single dose 10^−5 M; read-out: Growth inhibition (%)

N#CC1C(=O)NC(c2cccc([N+](=O)[O-])c2)c2sc3c(F)cccc3c21 (stereo not shown) [Compound 5d, 4-Cyano-8-fluoro-1-(3-nitrophenyl)-1,2-dihydro[1]benzothieno[2,3-c] pyridin-3(4H)-one]
inhibition at 10 µM [1]: -8.86%
inhibition at 10 µM [2]: -0.19%
inhibition at 10 µM [3]: -7.73%
inhibition at 10 µM [4]: 12.2%
inhibition at 10 µM [5]: 41.3%
inhibition at 10 µM [6]: 4.25%
inhibition at 10 µM [7]: -13.1%
inhibition at 10 µM [8]: 16.4%
inhibition at 10 µM [9]: 0.05%
inhibition at 10 µM [10]: -14.8%
inhibition at 10 µM [11]: -0.08%
inhibition at 10 µM [12]: 11.5%
inhibition at 10 µM [13]: -58.3%
inhibition at 10 µM [14]: 8.17%
inhibition at 10 µM [15]: -12.1%
inhibition at 10 µM [16]: 13.5%
inhibition at 10 µM [17]: 18.9%
inhibition at 10 µM [18]: -6.53%
inhibition at 10 µM [19]: 3.95%
inhibition at 10 µM [20]: -6.69%
inhibition at 10 µM [21]: -19%
inhibition at 10 µM [22]: 21.4%
inhibition at 10 µM [23]: -2.29%
inhibition at 10 µM [24]: -0.9%
inhibition at 10 µM [25]: 18.1%
inhibition at 10 µM [26]: 9.36%
inhibition at 10 µM [27]: 36.6%
inhibition at 10 µM [28]: -14.2%
inhibition at 10 µM [29]: 1.95%
inhibition at 10 µM [30]: -6.8%
inhibition at 10 µM [31]: 2.18%
inhibition at 10 µM [32]: 17.3%
inhibition at 10 µM [33]: 17.4%
inhibition at 10 µM [34]: 4.83%
inhibition at 10 µM [35]: -21.6%
inhibition at 10 µM [36]: 5%
inhibition at 10 µM [37]: 7.44%
inhibition at 10 µM [38]: 22.4%
inhibition at 10 µM [39]: 9.55%
inhibition at 10 µM [40]: 5.7%
inhibition at 10 µM [41]: -0.44%
inhibition at 10 µM [42]: 7.78%
inhibition at 10 µM [43]: 5.37%
inhibition at 10 µM [44]: 5.16%

CCN1CCN(C2C(=O)NC(c3cccc([N+](=O)[O-])c3)c3sc4c(F)cccc4c32)CC1 (stereo not shown) [Compound 6a, 4-(4-Ethylpiperazin-1-yl)-8-fluoro-1-(3-nitrophenyl)-1,2-dihydro[1]benzo thieno[2,3-c]pyridin-3(4H)-one]
inhibition at 10 µM [1]: -1.65%
inhibition at 10 µM [2]: -1.88%
inhibition at 10 µM [3]: -24%
inhibition at 10 µM [4]: 8.9%
inhibition at 10 µM [5]: 35.8%
inhibition at 10 µM [6]: 0.49%
inhibition at 10 µM [7]: -13.3%
inhibition at 10 µM [8]: 7.67%
inhibition at 10 µM [9]: -7.17%
inhibition at 10 µM [10]: -13.8%
inhibition at 10 µM [11]: -2.46%
inhibition at 10 µM [12]: -2.24%
inhibition at 10 µM [13]: -51.9%
inhibition at 10 µM [14]: 11%
inhibition at 10 µM [15]: -3.44%
inhibition at 10 µM [16]: 6.81%
inhibition at 10 µM [17]: 9.9%
inhibition at 10 µM [18]: -7.34%
inhibition at 10 µM [19]: 10%
inhibition at 10 µM [20]: -2.64%
inhibition at 10 µM [21]: -14.7%
inhibition at 10 µM [22]: 8.57%
inhibition at 10 µM [23]: -2.32%
inhibition at 10 µM [24]: -1.47%
inhibition at 10 µM [25]: 0.82%
inhibition at 10 µM [26]: 0.35%
inhibition at 10 µM [27]: 16.4%
inhibition at 10 µM [28]: -18.1%
inhibition at 10 µM [29]: -3.39%
inhibition at 10 µM [30]: -15%
inhibition at 10 µM [31]: -2.46%
inhibition at 10 µM [32]: 8.6%
inhibition at 10 µM [33]: -2.53%
inhibition at 10 µM [34]: -1.71%
inhibition at 10 µM [35]: -13%
inhibition at 10 µM [36]: -0.71%
inhibition at 10 µM [37]: 5.15%
inhibition at 10 µM [38]: 0.67%
inhibition at 10 µM [39]: -6.65%
inhibition at 10 µM [40]: -0.94%
inhibition at 10 µM [41]: -2%
inhibition at 10 µM [42]: 6.68%
inhibition at 10 µM [43]: 2.02%
inhibition at 10 µM [44]: 2.15%
